Measured values taken from patent CN103800339A, “一类治疗精神分裂症的化合物及其用途” (Individual, priority 2012, dated 2014).

System: ketamine schizophrenia model rats (大鼠分裂症氯胺酮模型大鼠)
Experiment: Social interaction test in ketamine-induced schizophrenia model rats (total activity time, aggressive and non-aggressive behaviour)
Type: in vivo, rat
Details: n=20, mean±SD
[1] = day of drug withdrawal, after 7 days i.m. dosing (compounds A-E 1 mg/kg; risperidone 2 mg/kg), ketamine model Wistar rats, 7 min test, * P<0.05, ** P<0.01 vs model

In the case of `Cc1nc2n(c(=O)c1CCN1CCC(c3noc4cc(F)ccc34)CC1)CCCC2` [利培酮], the total activity time (7 days after drug withdrawal, after 7 days i.m. dosing (compounds A-E 1 mg/kg; risperidone 2 mg/kg), ketamine model Wistar rats, 7 min test, * P<0.05, ** P<0.01 vs model) was 18.2±6.3, the total activity time (before dosing (baseline), male Wistar rats, ketamine 30 mg/kg i.p. 5 days) was 13.9±2.9 and the “number of aggressive behaviours” value [1] was 3.1±1.5. For the same compound, the “number of non-aggressive behaviours” value [1] was 6.3±3.9 and the total activity time [1] was 23.2±6.1.
